Laboratory results published in publication PMC3244877 (2009).

Target: T1, HsEg5 (Homo sapiens, UniProt P52732)
T1 sequence (P52732 1-370): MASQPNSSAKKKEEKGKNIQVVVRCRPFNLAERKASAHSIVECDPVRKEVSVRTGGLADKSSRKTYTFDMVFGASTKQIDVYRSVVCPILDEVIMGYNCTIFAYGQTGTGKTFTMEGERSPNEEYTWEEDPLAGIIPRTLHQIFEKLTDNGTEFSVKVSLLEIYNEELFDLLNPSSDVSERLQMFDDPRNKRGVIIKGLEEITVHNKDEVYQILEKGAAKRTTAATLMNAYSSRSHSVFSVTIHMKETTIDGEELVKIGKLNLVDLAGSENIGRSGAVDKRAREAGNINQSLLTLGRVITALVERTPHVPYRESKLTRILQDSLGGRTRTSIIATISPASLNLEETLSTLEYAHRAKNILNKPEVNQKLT
Assay: NADH-coupled basal ATPase assay, Lineweaver-Burk
Assay type: biochemical

Ki: 550 nM
SMILES: [Mo] [NSC 622124]
